Earlier results as cited in patent US20220054402A1, “COMPOSITIONS AND METHODS FOR EXTRACTING, STABILIZING, AND MAN[…] DOSAGE FORMS OF PSILOCIN, P[…], ENTHEOGENS, AND MEDICINAL MUSHROOMS AS NANO-D[…] DELIVERY STRUCTURES” (priority 2020, published 2022).

Key:
[1] = oral ingestion
[2] = β-glucan embedded in chitin cell walls
[3] = target: serotonin 5-HT2A receptor (Homo sapiens, UniProt P28223); settings: psilocin versus psilocybin
serotonin 5-HT2A receptor, sequence (P28223 whole entry): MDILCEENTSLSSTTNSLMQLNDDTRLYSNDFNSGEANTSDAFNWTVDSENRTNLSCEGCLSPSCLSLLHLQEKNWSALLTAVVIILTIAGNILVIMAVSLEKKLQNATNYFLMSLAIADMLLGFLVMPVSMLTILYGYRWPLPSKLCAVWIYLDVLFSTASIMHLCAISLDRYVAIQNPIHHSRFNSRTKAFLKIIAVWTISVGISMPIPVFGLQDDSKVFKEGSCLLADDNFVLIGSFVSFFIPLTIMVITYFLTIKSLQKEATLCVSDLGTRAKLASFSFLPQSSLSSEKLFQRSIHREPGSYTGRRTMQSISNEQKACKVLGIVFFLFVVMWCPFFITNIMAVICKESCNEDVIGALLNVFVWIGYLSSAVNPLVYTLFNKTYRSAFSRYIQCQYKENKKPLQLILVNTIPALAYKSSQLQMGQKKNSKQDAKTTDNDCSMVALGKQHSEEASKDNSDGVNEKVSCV

## COc1cc(CCN)cc(OC)c1OC [Mescaline, 5-trimethoxyphenethylamine]
[1]
  reported onset time of effects from ingesting: 60 to 180 min

## β-glucan
[2]
  bioavailability: less than 5%

## CN(C)CCc1c[nH]c2cccc(O)c12 [Psilocin, 4-hydroxy-NN-dimethyltryptamine]
[3]
  affinity for binding the serotonin 5-HT2A receptor relative to psilocybin: more than 200 times
